Results as given in patent publication US9663486B2, “Selectively substituted quinoline compounds” (EISAI R&D MANAGEMENT CO., LTD., priority 2013, dated 2017).

How the values were obtained:
Human TLR7 = molecular target: T1, Human TLR7 (Homo sapiens, UniProt Q9NYK1); assay: HEK-293 NFkB-luciferase reporter assay, CL097 stimulation; assay type: cell-based; settings: ligand CL097
T1 construct: stably and individually express human TLR4, TLR7 or TLR9 full-length ORF cDNAs; host or cells: HEK-293 (ATCC) with ELAM-1 NF-kappaB luciferase reporter
T1 sequence (Q9NYK1 27-1049): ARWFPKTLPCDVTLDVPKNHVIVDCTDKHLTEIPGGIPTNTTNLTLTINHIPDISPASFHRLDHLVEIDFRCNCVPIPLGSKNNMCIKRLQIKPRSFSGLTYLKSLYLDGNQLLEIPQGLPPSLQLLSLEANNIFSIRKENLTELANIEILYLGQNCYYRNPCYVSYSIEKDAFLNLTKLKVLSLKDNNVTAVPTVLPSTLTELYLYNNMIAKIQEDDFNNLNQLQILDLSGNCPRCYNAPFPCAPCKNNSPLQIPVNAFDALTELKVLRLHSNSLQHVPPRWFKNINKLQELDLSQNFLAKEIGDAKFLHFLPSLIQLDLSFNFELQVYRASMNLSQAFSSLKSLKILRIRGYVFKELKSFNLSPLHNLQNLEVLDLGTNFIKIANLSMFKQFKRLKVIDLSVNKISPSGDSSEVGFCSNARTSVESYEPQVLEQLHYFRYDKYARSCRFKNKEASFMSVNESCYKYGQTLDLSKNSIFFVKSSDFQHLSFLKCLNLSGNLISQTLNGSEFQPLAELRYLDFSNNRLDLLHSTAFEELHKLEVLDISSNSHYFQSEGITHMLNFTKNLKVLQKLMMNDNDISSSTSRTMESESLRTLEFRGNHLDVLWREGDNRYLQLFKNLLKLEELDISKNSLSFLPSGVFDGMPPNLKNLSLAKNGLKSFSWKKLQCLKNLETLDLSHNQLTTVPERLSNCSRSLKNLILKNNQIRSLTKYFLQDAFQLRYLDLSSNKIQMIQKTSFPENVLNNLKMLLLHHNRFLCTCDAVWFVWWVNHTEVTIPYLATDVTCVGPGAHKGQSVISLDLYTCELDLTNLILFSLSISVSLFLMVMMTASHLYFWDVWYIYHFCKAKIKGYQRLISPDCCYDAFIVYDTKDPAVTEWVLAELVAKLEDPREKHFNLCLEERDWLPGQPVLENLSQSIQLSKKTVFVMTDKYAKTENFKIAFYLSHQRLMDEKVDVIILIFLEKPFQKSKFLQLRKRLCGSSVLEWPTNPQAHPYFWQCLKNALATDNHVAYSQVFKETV
Excerpt: (§1) HEK-293 cells (ATCC) were engineered to stably express a NF-kappaB transcription factor inducible E-selectin (ELAM-1) luciferase reporter derived from the plasmid pGL3 (Promega) containing base pairs −2241 bp to −254 bp from the promoter of the human E-selectin gene (Accession No. NM_000450). These cells were then subsequently engineered to stably and individually express human TLR4, TLR7 or TLR9 full-length ORF cDNAs. Human TLR4 cDNA (Accession No. NM_138554) was cloned into pcDNA 3.0 expression vector (Invitrogen). TLR4 transfected cells were also engineered to express human MD-2 co-receptor [MD-2 cDNA (Accession No. NM_015364) was cloned into the pEF-BOS vector] and were supplemented with 10 nM soluble CD14 (R&D Systems) in the media to optimize LPS responsiveness. Human TLR9 cDNA (Accession No. NM_017442) was cloned into the pBluescript II KS vector (Agilent). Human TLR7 cDNA (Accession No. NM_016562) was obtained from OriGene. HEK-293 cells stably expressing human TLR8 (Accession No. NM_138636) or mouse TLR7 (Accession No. NM_133211) were purchased from InvivoGen and were then stably transfected with pNiFty2(NF-kappaB)-luciferase reporter plasmid (InvivoGen). Each cell type was plated in Dulbecco's modified Eagle's medium (DMEM) containing 10% fetal bovine serum (FBS) at a density of 2.22×10^5 cells/ml into a 384-well plate and incubated for 2 days at 37° C., 5% CO2. […]

Human TLR4 = Human TLR4 (Homo sapiens, UniProt O00206); assay: HEK-293 NFkB-luciferase reporter assay, LPS stimulation; assay type: cell-based; design: stably and individually express human TLR4, TLR7 or TLR9 full-length ORF cDNAs; expressed in transfected cells; host or cells: HEK-293 (ATCC) with ELAM-1 NF-kappaB luciferase reporter; settings: ligand LPS
Excerpt: as §1

Chain of Human TLR4 (O00206 24-839): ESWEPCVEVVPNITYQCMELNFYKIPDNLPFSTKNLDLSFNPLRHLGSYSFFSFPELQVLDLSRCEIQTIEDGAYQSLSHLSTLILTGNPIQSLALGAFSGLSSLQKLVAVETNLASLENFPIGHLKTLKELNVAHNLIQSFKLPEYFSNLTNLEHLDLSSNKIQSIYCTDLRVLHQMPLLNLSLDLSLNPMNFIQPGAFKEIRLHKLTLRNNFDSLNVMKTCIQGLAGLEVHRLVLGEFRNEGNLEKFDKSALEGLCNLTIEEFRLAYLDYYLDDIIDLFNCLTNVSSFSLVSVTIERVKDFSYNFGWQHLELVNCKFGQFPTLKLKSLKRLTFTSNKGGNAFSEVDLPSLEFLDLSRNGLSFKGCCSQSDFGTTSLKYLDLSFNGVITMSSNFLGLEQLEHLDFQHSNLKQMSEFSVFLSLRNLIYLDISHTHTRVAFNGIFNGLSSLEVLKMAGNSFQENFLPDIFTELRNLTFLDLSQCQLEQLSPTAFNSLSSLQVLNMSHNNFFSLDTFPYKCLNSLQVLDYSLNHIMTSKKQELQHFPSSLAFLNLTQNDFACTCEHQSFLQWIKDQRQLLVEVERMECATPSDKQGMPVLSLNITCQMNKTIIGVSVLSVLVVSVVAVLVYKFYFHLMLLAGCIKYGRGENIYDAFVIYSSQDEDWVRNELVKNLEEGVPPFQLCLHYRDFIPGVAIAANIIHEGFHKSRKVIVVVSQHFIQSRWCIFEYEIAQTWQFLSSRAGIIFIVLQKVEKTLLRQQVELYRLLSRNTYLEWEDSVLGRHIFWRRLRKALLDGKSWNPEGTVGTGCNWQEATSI
Chain of Human TLR4 (Q9Y6Y9 19-160 partner): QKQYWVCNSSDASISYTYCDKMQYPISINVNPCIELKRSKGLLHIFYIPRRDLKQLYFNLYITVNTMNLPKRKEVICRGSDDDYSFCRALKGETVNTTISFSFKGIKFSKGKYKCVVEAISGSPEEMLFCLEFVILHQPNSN

SMILES: C[C@H]1C[C@@H](N)CN(c2ccc(C#N)c3ncccc23)C1 [ER-888840, 5-((3R,5S)-3-amino-5-methylpiperidin-1-yl)quinoline-8-carbonitrile]
- IC50 (Human TLR7): 0.2 nM
- IC50 (Human TLR4): > 10000 nM
